Test system: Episkin model of reconstructed skin
Experiment: Skin coloring on the Episkin model of reconstructed skin, spectrocolorimeter measurement after washing
Format: cell-based
Procedure: The products are evaluated on the Episkin model of reconstructed skin after 18 days of culturing. The crucibles are placed on Whatman paper. 20 μl of a 5 wt % solution of test product in a 50% water/50% ethanol mixture. […] A second rinse is performed with 1 ml of water. The residual liquid is absorbed using a soft paper tissue. The measurements are taken using a Minolta CM-2600d spectrocolorimeter.
Spectrocolorimeter Minolta CM2600d
The results are expressed in the system (L*, a*, b*) dans lequel L* is the luminance, a* is the red-green axis (−a*=green, +a*=red) and b* is the yellow/blue axis (−b*=blue, +b*=yellow). Therefore, a* and b* express the coloring of the skin.
The color deviation is obtained with the color deviation formula of Hunter in the calorimetric domain L, a, b: (ΔE)^2=[(ΔL)^2+(Δa)^2+(Δb)^2]. ΔE is the darkening, the global intensity of the color: The more ΔE is important the more the color darkened.

[1] = 5 wt % solution in 50% water/50% ethanol, 20 μl, after 24 hours, after washing

O=C1OC(C(O)CO)C(=O)C1=O (stereo not drawn) [Dehydroascorbic acid, threo-2,3-hexodiulosono-1,4-lactone, 9CI]
L* (luminance / intensity) [1]: 77.7
a* (red component) [1]: 4.8
b* (yellow component) [1]: 35
ΔE*ab (color deviation, darkening) (5 wt % solution, after 24 hours, after washing, deviation versus Episkin alone): 14.6
Shade obtained compared with DHA (concentration equal to 5 wt %): stronger shade with a more pronounced dominant red

From patent US9643032B2, “Application of dehydroascorbic acid or derivatives/isomers thereof for artificially coloring the skin” (L'Oreal, priority 2007, dated 2017)
